# Ends that are not written are not given here.
# Experiments:
# Type in all cases: cell-based
# Botrytis cinerea myc = assay: Antifungal growth inhibition test in liquid medium
# Fusarium culmorum sp = assay: Antifungal growth inhibition test in liquid medium
# Source text: (§1) Les composés des pics 5, 7 et 8 de la figure 1 ont été testées vis-à-vis d'un ensemble de champignons phytopathogènes. Trois doses (10, 20, et 40 ppm) ont été employées pour chacun des composés.
# (§2) L'activité antifongique a été détectée par un test d'inhibition de croissance en milieu liquide. Les spores des champignons à tester ont été mises en suspension dans un milieu de culture de type "Pomme de terre-Glucose". De préférence, on utilise 12 g de milieu Potato Dextrose Broth (Difco) pour 1 litre d'eau déminéralisée. Deux antibiotiques ont été rajoutés au milieu de culture: la tétracycline (concentration finale de 10 µg/ml) et la céfotaxime (100 µg/ml). On dépose 10 µl de chaque composé à tester dans des plaques de microtitration en présence de 90 µl de milieu de culture contenant les spores (à une concentration finale de 10^4 spores/ml). L'incubation a été réalisée en chambre humide à 30°C durant 48 heures. La croissance fongique a été observée au microscope photonique après 24 h et quantifiée après 48 heures par mesure de l'absorbance à 600 nm à l'aide d'un spectrophotomètre lecteur de plaque de microtitration. L'activité des composés contre les champignons phytopathogènes est exprimée par un pourcentage d'inhibition de croissance correspondant à 100 x (1 - absorbance avec produit/ absorbance du témoin sans produit), l'absorbance étant mesurée à 600 nm, 5 jours après le début de l'expérience.
# Phytophthora myc = assay: Antifungal growth inhibition test in liquid medium
# Source text: as §1, §2
# Escherichia coli CIP548 = assay: Bacterial growth inhibition test in Petri dish (solid medium), MIC; conditions: MIC extrapolated from inhibition diameter vs log10 concentration
# Salmonella sp. = assay: as above; conditions: MIC extrapolated from inhibition diameter vs log10 concentration
# Protocol: Deux tests ont été utilisés pour mesurer l'activité antibactérienne des pseudopeptides, un test d'inhibition de la croissance bactérienne en microplaques (de 96 puits) en milieu liquide et un test d'inhibition de la croissance bactérienne en boîte de Pétri en milieu solide. • * Test en microplaques: La culture bactérienne à tester est prélevée en phase exponentielle, puis diluée au 1/500^ème dans du milieu liquide TSB frais. Chaque puits de la microplaque est rempli avec 100 µl de suspension bactérienne diluée. Dans le premier puits, 100 µl de l'échantillon de pseudopeptide à tester est ajouté à la suspension bactérienne, puis l'échantillon est dilué de 2 en 2 en transférant d'un puits à l'autre 100 µl de suspension. La lecture de la microplaque se fait en mesurant la densité optique à […] (DO600nm) après 24h d'incubation à 28°C ou 37°C selon les bactéries cibles. Connaissant la concentration en pseudopeptide de l'échantillon de départ, ce test permet de déterminer la valeur de la CMI (Concentration Minimale d'Inhibition de la croissance bactérienne). Dans ce test, la CMI correspond à la concentration de l'échantillon pour lequel la DO600nm est inférieure à celle du témoin de culture. • * Test en boîte de Pétri: La culture bactérienne à tester est prélevée en phase exponentielle, puis incorporée à 10 ml d'une gélose dite "sous-couche" (Agarose 1% poids/vol; NaCl 100 mM; Trypcase 0.03 % poids/vol; Tampon phosphate 10 mM pH7.4) à raison de 2.10^5 bactéries/ml. Le mélange est coulé dans une boîte de Pétri ordinaire. 9 puits d'environ 10 µl de volume sont formés dans la "sous-couche" à l'aide d'un embout de pipette stérile de 10 ml. Ces puits sont remplis avec une série de dilutions des pseudopeptides à tester (concentration initiale 500 µg/ml, et dilution de deux en deux jusqu'à 1,95 µg/ml). Après diffusion à température ambiante pendant 2h, une gélose dite "sur-couche" (Agarose 1% wt/vol; Trypcase 6 % wt/vol; Tampon phosphate 10 mM pH7.4) est ajoutée sur la sous-couche à raison de 5 à 10 ml. Après solidification, l'ensemble est mis à incuber pendant une nuit. Le diamètre d'inhibition de la culture bactérienne autour de chaque puits est mesuré en mm; il existe une relation linéaire entre le diamètre d'inhibition et le log10 de la concentration en pseudopeptide qui permet de déterminer par extrapolation la valeur de la CMI.
# Une première série de résultats a été obtenue en utilisant le test en boîte de Pétri vis-à-vis de bactéries non pathogènes issues de la collection de Travaux pratiques du laboratoire de Pathologie Comparée de l'Université de Montpellier (France). Dans cette série, les pseudopeptides des pics 5, 7, 8,10 et 11 ont été testés (Tableau 4).
substance,measurement,setting,value
Composé 8: pseudopeptide du pic n° 8 de Xenorhabdus nematophilus F1; Famille 1: Lys Lys Lys Lys Lys Gly; 1066 Da; structure en Figure 2 (KKKKKG; also: pseudopeptide modifications),pourcentage d'inhibition de croissance,Botrytis cinerea myc; 10 ppm,40%
same,pourcentage d'inhibition de croissance,Botrytis cinerea myc; 20 ppm,70%
same,pourcentage d'inhibition de croissance,Botrytis cinerea myc; 40 ppm,93%
same,pourcentage d'inhibition de croissance,Fusarium culmorum sp; 10 ppm,96%
same,pourcentage d'inhibition de croissance,Fusarium culmorum sp; 20 ppm,96%
same,pourcentage d'inhibition de croissance,Fusarium culmorum sp; 40 ppm,96%
same,pourcentage d'inhibition de croissance,Phytophthora myc; 10 ppm,76%
same,pourcentage d'inhibition de croissance,Phytophthora myc; 20 ppm,78%
same,pourcentage d'inhibition de croissance,Phytophthora myc; 40 ppm,77%
same,CMI,Escherichia coli CIP548,"7,5 µg/ml"
same,CMI,Salmonella sp.,30 µg/mL
